Assay results published in ChEMBL document CHEMBL3272025, “Conformation-activity studies of oxytocin. Effects of structural modifications at corner positions of the beta-turns on the uterotonic activity” (J Med Chem, 1977).
Bridge positions count the residues as written; N and C are the ends. Peptide text beside a SMILES is read from it.

Assays:
Gallus gallus [1] = experiment: Inhibition of vasodepressor activity in conscious chicken; format: functional, organism-based; settings: read-out: pA2 (converted)
[2] = Retardation factor of the compound using BuOH-C6H6-HOAc-1.5% aqueous pyridine at ratio of 10:15:12:18 as solvent system by partition chromatography; format: physicochemical; settings: buffer
[3] = target: T1, Oxytocin receptor (Rattus norvegicus) (UniProt P70536); experiment: Agonist activity at oxytocin receptor in virgin rat uterine horns assessed as uterotonic activity at relative to synthetic oxytocin
T1 sequence (whole entry): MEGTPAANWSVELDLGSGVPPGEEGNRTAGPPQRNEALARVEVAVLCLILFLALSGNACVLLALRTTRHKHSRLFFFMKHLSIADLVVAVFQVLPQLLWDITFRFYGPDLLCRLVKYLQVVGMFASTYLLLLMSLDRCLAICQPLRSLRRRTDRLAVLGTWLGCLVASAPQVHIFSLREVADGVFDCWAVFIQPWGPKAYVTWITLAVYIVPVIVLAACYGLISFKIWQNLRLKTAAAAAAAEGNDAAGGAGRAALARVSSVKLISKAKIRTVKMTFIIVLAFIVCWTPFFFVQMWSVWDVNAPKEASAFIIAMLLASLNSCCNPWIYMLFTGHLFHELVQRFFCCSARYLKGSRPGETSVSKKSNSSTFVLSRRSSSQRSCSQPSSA

[4] = Retardation factor of the compound using BuOH-HOAc-H2O at ratio of 4:1:1 as solvent system by thin layer chromatography; format: physicochemical
Rattus norvegicus [5] = experiment: Antidiuretic activity in anesthetized rat; format: functional, Urine
[6] = Retardation factor of the compound using BuOH-C6H6-HOAc-1.5% aqueous pyridine at ratio of 5:5:4:6 as solvent system by partition chromatography; format: physicochemical; settings: buffer
[7] = target: T1, Oxytocin receptor (Rattus norvegicus); experiment: Agonist activity at oxytocin receptor in virgin rat uterine horns assessed as uterotonic activity at
[8] = Retardation factor of the compound using BuOH-pyridine-H2O at ratio of 20:10:11 as solvent system by thin layer chromatography; format: physicochemical
[9] = Retardation factor of the compound using BuOH-pyridine-HOAc-H2O at ratio of 15:10:3:6 as solvent system by thin layer chromatography; format: physicochemical
Gallus gallus [10] = experiment: Vasodepressor activity in conscious chicken; format: functional
Rattus norvegicus [11] = experiment: Pressor activity in anesthetized rat; format: functional

| Structure (SMILES) | Rf [2] | Activity [3] [%] | Rf [4] | Rf [6] | Activity [7] [U/mg] | Rf [8] | Rf [9] | Kb (Gallus gallus [1]) [nM] | Activity (Rattus norvegicus [5]) [U/mg] | Activity (Gallus gallus [10]) [U/mg] | Activity (Rattus norvegicus [11]) [U/mg] |
| --- | --- | --- | --- | --- | --- | --- | --- | --- | --- | --- | --- |
| CC[C@H](C)[C@@H]1NC(=O)[C@H](Cc2ccc(O)cc2)NC(=O)[C@@H](N)CSSC[C@@H](C(=O)N2CCC[C@H]2C(=O)N[C@@H](CC(C)C)C(=O)NCC(N)=O)NC(=O)[C@H](CC(N)=O)NC(=O)[C@H](CC(C)C)NC1=O (H-CYILNCPLG-NH2; disulfide 1-6) |  | 81 |  |  | 13 |  |  |  |  |  |  |
| CC[C@H](C)[C@@H]1NC(=O)[C@H](Cc2ccc(O)cc2)NC(=O)[C@@H](N)CSSC[C@@H](C(=O)N2CCC[C@H]2C(=O)N[C@@H](CC(C)C)C(=O)NCC(N)=O)NC(=O)[C@H](CC(N)=O)NC(=O)[C@H](Cc2ccccc2)NC1=O (H-CYIFNCPLG-NH2; disulfide 1-6) | 0.26 | 75 | 0.38 |  | 0.75 | 0.61 |  |  |  |  |  |

Second part, led by results:

| Rf [2] | Activity [3] [%] | Rf [4] | Rf [6] | Activity [7] [U/mg] | Rf [8] | Rf [9] | Structure (SMILES) | Kb (Gallus gallus [1]) [nM] | Activity (Rattus norvegicus [5]) [U/mg] | Activity (Gallus gallus [10]) [U/mg] | Activity (Rattus norvegicus [11]) [U/mg] |
| --- | --- | --- | --- | --- | --- | --- | --- | --- | --- | --- | --- |
| 0.19 | 54 | 0.38 | 0.49 |  |  |  | CSCC[C@H](NC(=O)[C@@H]1CCCN1C(=O)[C@@H]1CSSC[C@H](N)C(=O)N[C@@H](Cc2ccc(O)cc2)C(=O)N[C@@H](Cc2ccccc2)C(=O)N[C@@H](Cc2ccccc2)C(=O)N[C@@H](CC(N)=O)C(=O)N1)C(=O)NCC(N)=O (H-CYFFNCPMG-NH2; disulfide 1-6) | 513 | 0.43 |  |  |
| 0.17 | 66 | 0.38 |  | 0.62 |  | 0.64 | CSCC[C@H](NC(=O)[C@@H]1CCCN1C(=O)[C@@H]1CSSC[C@H](N)C(=O)N[C@@H](Cc2ccc(O)cc2)C(=O)N[C@@H](Cc2ccccc2)C(=O)N[C@@H](CC(C)C)C(=O)N[C@@H](CC(N)=O)C(=O)N1)C(=O)NCC(N)=O (H-CYFLNCPMG-NH2; disulfide 1-6) |  | 0.33 | 1.05 | 0.92 |
|  | 90 |  |  | 39 |  |  | CC(C)C[C@H](NC(=O)[C@@H]1CCCN1C(=O)[C@@H]1CSSC[C@H](N)C(=O)N[C@@H](Cc2ccc(O)cc2)C(=O)N[C@@H](Cc2ccccc2)C(=O)N[C@@H](CCC(N)=O)C(=O)N[C@@H](CC(N)=O)C(=O)N1)C(=O)NCC(N)=O (H-CYFQNCPLG-NH2; disulfide 1-6) |  |  |  |  |
